One data set deals with VZV. Details: method as in ref 35, 38 (a number printed in a supplementary file, which may have a reference list of its own: not looked up in the article's list). As to conditions: Table S1; read-out: antiviral EC50, VZV; cited from earlier work.
A further data set has as its system RhCMV. Details: method as in ref 35, 38 (a number printed in a supplementary file, which may have a reference list of its own: not looked up in the article's list). To be noted: Table S1; read-out: antiviral EC50, RhCMV; cited from earlier work.
Data set [1] in a line: Neutral Red uptake cell viability assay, Caco-2. As to conditions: human.
For data set [2], the system named is SARS-CoV-2 d6-YFP.
The test system of data set [3] is Epstein–Barr virus P3HR-1. The experiment in a line: EBV lytic assay in TPA-induced P3HR-1 cells, qPCR. Format: cell-based. To be noted: human gammaherpesvirus 4, P3HR-1; Table S1; read-out: antiviral EC50, EBV. On the technique in general: Real-time PCR tracks product formation cycle by cycle.
The subject of a further data set is HAdV. Further details: method as in ref 35, 38 (a number printed in a supplementary file, which may have a reference list of its own: not looked up in the article's list). To be noted: Table S1; read-out: antiviral EC50, HAdV; cited from earlier work.
The next data set has as its system vaccinia virus VV IHD-5. Kind of data set: microbe, parasite or virus in culture. As to conditions: Orthopoxvirus vaccinia, read-out: antiviral EC50, VV. Format: cell-based.
In another data set the test system is MCMV. Further details: method as in ref 35, 38 (a number printed in a supplementary file, which may have a reference list of its own: not looked up in the article's list). As to conditions: Table S1; read-out: antiviral EC50, MCMV; cited from earlier work.
The nature of a further data set: in vitro. To be noted: human.
The nature of data set [4]: Neutral Red uptake / Alamar Blue cell viability assay, 293T. To be noted: human.
The nature of data set [5]: Neutral Red uptake cell viability assay, HFF. As to conditions: human.
Another data set relates to KSHV. Details: method as in ref 35, 38 (a number printed in a supplementary file, which may have a reference list of its own: not looked up in the article's list). To be noted: Table S1; read-out: antiviral EC50, KSHV; cited from earlier work.
Data set [6] can be described thus: Neutral Red uptake cell viability assay, MEF. To be noted: mouse.
A further data set has as its system HSV-1. Details: method as in ref 35, 38 (a number printed in a supplementary file, which may have a reference list of its own: not looked up in the article's list). As to conditions: Table S1; read-out: antiviral EC50, HSV-1; cited from earlier work.
Another data set relates to RCMV. Details: method as in ref 35, 38 (a number printed in a supplementary file, which may have a reference list of its own: not looked up in the article's list). To be noted: Table S1; read-out: antiviral EC50, RCMV; cited from earlier work.
Data set [7] relates to SARS-CoV-2 d6-YFP. Kind of data set: microbe, parasite or virus in culture.
The subject of another data set is HHV-6A. Further details: method as in ref 35 (a number printed in a supplementary file, which may have a reference list of its own: not looked up in the article's list). To be noted: Table S1; J-Jhan cells; read-out: antiviral EC50, HHV-6A (J-Jhan); cited from earlier work.
Data set [8] in a line: Neutral Red uptake cell viability assay, COS-7. As to conditions: African green monkey.
The nature of data set [9]: Neutral Red uptake cell viability assay, Vero. As to conditions: African green monkey, CC50, Vero (Fig 4F).
In a further data set the test system is JCPyV. Details: method as in ref 35, 38 (a number printed in a supplementary file, which may have a reference list of its own: not looked up in the article's list). To be noted: Table S1; read-out: antiviral EC50, JCPyV; cited from earlier work.
In the next data set the test system is ChCMV. Further details: method as in ref 35, 38 (a number printed in a supplementary file, which may have a reference list of its own: not looked up in the article's list). As to conditions: Table S1; read-out: antiviral EC50, ChCMV; cited from earlier work.
The next data set deals with HHV-6A-GFP. Kind of data set: HHV-6A plaque reduction assay in HFFs. To be noted: Human betaherpesvirus 6A. A general note: Plaque reduction counts the foci of infection that form in a cell layer.
The next data set has as its system MHV-68-Luc. The experiment in a line: MHV-68-Luc luciferase reporter assay. Format: cell-based, murine herpesvirus 68. To be noted: Murine herpesvirus. A general note: Reporter assays use an easily measured gene product as a stand-in for the process of interest.
The test system of the next data set is HCMV. Further details: method as in ref 35, 38 (a number printed in a supplementary file, which may have a reference list of its own: not looked up in the article's list). To be noted: Table S1; read-out: antiviral EC50, HCMV; cited from earlier work.
A further data set has as its system EHV-1. The experiment in a line: EHV-1-specific qPCR of virus release into culture medium. Format: cell-based, equine herpesvirus 1.
A further data set deals with EHV-1-GFP. The experiment in a line: EHV-1-GFP antiviral assay, GFP fluorometry. Format: cell-based, equine herpesvirus 1. To be noted: COS-7.
For the next data set, the system named is Caco-2 cells. The experiment in a line: Neutral Red uptake cell viability assay, Caco-2. As to conditions: read-out: mean CC50; Caco-2 (Fig 7D).

Structures are written as SMILES. Read-outs that look alike come from different tables or passages of the source. Where only a bound is given, the exact number is not on record here.

In the case of `CN(C)C(=O)Cn1cc(-c2ccc(-c3cncc4ccccc34)cc2)cn1` [BI-1347], the half-maximal effective concentration (EC50) is 26000 ± 10000 nM in the data set with VZV; 0.4 ± 0.5 nM in the data set on RhCMV; 5500 ± 4200 nM in [3]; 50 ± 100 nM in the data set with HAdV; > 50000 nM in the data set on vaccinia virus VV IHD-5; 20 ± 10 nM in the data set with MCMV. Besides, the EC50 is 300 ± 600 nM with KSHV; > 50000 nM with HSV-1; 2 ± 4 nM with RCMV; ≥ 15400 nM in the data set with SARS-CoV-2 d6-YFP [7] (Severe acute respiratory syndrome coronavirus 2, Caco-2, 30 h, read-out: Antiviral mean EC50 based on YFP measurements); 22800 ± 3200 nM in the data set on SARS-CoV-2 d6-YFP [7] (Severe acute respiratory syndrome coronavirus 2, Caco-2, read-out: antiviral EC50, SARS-CoV-2); > 50000 nM in the data set on HHV-6A. Moreover, the 50% effective concentration (EC50) in the data set on JCPyV is 700 ± 1600 nM; in the data set on ChCMV it was 10 ± 20 nM; in the data set on HHV-6A-GFP (read-out: Antiviral mean EC50 based on plaque assay measurements) it was 200 ± 200 nM; in the data set on HHV-6A-GFP (read-out: antiviral EC50, HHV-6A (HFF)), 300 ± 200 nM; in the data set on MHV-68-Luc (COS-7, read-out: antiviral EC50, MHV-68 (COS-7), Table S1, COS-7) it was 0.1 ± 0.1 nM; in the data set on MHV-68-Luc (Vero, read-out: antiviral EC50, MHV-68 (Vero), Table S1, Vero), 0.5 ± 0.03 nM. Moreover, the 50% effective concentration (EC50) in the data set with MHV-68-Luc (read-out: antiviral EC50, MHV-68 (HFF), Table S1, HFF) was 40 ± 20 nM; in the data set with MHV-68-Luc (read-out: antiviral EC50, MHV-68 (MEF), Table S1, MEF), 6 ± 2 nM; with HCMV it was 0.9 ± 0.7 nM; in the data set with EHV-1 (EHV-1, qPCR / COS-7, read-out: EC50) it was < 3 nM; in the data set with EHV-1 (Equus caballus), 20 ± 50 nM; in the data set with EHV-1 (Equus caballus, read-out: antiviral EC50, EHV-1 (HFF)), 30 ± 30 nM. For the same compound, the EC50 in the data set on EHV-1-GFP came to 80 nM. The CC50 at 3 d in [1] is > 100000 nM. For the same compound, the “CDK8 inhibitor sensitivity of SARS-CoV-2 in Caco-2 cells” value with SARS-CoV-2 d6-YFP [2] (in words) was “low level of sensitivity”. Besides, the CC50 in “in vitro” is > 100000 nM; in data set [5] (CC50, HFF, listed with qPCR / HFF (Fig 1E)), > 50000 nM; in data set [5] (mean CC50, HFF, HHV-6A assay conditions (Fig 2D)), > 100000 nM. This compound registered a CC50 at 2 d in data set [4] of 93000 ± 5000 nM. For the same compound, the CC50 at 7 d in [6] and in data set [9] was > 100000 nM each time. Further, the CC50 at 4 d is > 100000 nM in data set [8] (CC50, COS-7 (Fig 4F)); > 50000 nM in data set [8] (CC50, COS-7, listed with GFP / COS-7 (Fig 1E)); > 50000 nM in [8] (CC50, COS-7, listed with qPCR / COS-7 (Fig 1E)).
In the case of `O=c1nc(NO)ccn1[C@@H]1O[C@H](CO)[C@@H](O)[C@H]1O` [EIDD-1931], the CC50 with Caco-2 cells was > 100000 nM. Besides, the EC50 with SARS-CoV-2 d6-YFP [2] (read-out: Antiviral mean EC50 based on YFP measurements, SARS-CoV-2 d6-YFP, Caco-2, […]) is 4100 ± 1400 nM.

As a reminder, the EC50 is the concentration at which the effect is half-maximal.

The values are drawn from paper PMC12567398, “New Assay Systems to Characterize the Broad-Spectrum Antiherpesviral and Non-Herpesviral Activity of Cyclin-Dependent Kinase (CDK) 8 Inhibitors” (Pharmaceuticals, 2025).
